Values belong to the compound of their own block, whether it stands above or below them.
Tests used:
[1] = test system: Rh D antigen; experiment: titrated haemagglutination assay of dried human IgM anti-Rh D antibody; format: cell-based; details: for % activity retained in HA titre: dried antibody, sugar at 5% final concentration
From the text: (§1) They can then be stored at room temperature indefinitely.
3. Trehalose preserves 100% of the antibody activity. A test of five sugars all used at 5% final concentration in a titrated haemagglutination assay gave the following results.
(§2) An additional titration was done to establish whether there is an optimum concentration of trehalose for preservation. The antibodies tested were mouse monoclonal IgM anti A antibody, a mouse monoclonal IgM anti B antibody and a human monoclonal IgM anti Rh antibody used above. They were diluted to an appropriate starting concentration as follows: mouse anti A 1:10, mouse anti B 1:10, human anti Rh (to a final concentration of 20μg/ml). These were titrated 1:3 across a 96 well microtitre plate in Dulbecco's phosphate buffered saline (PBS) in a final volume of 50μl. To each horizontal 8 well row was added 50μl of trehalose at concentrations ranging from 10% w/v to 0.1% w/v. The wells were then dried at 37° overnight. Next day the wells were rehydrated with 100μl distilled water containing buffer sufficient to restore isotonicity. Then 50μl aliquots were transferred to a v-bottom microtitre plate and 25μl of 1% washed human red cells carrying the appropriate blood group antigens added and mixed. Haemagglutination titres were read after 2-3 hours at room temperature. […] With the anti Aantibody any trehalose concentration above 1% preserved maximal activity and with the anti B antibody any concentration above 0.5% preserved maximum activity.

[2] = test system: B blood group substance; experiment: titrated haemagglutination assay of dried mouse IgM anti B antibody; format: cell-based, human; details: dried at 37° overnight
Method: as §1, §2

[3] = test system: rat IgG immunoglobulin; experiment: indirect agglutination titre of dried or fresh sheep antiserum K237; format: cell-based
Method: A sheep antiserum to rat IgG immunoglobulin (K237) was titrated in a 96 well flat bottom microtitre plate as 1:3 steps (25μl serum in 50μl PBS). 50μl of 5% w/v trehalose in D.W was then added and the plate dried at 37° in a warm room for 48 hr.
The wells were reconstituted with 100μl distilled water. 50μl of the contents of each well were transferred to v bottom microtitre plates, DA rate erythrocytes were washed ×3 in saline and sensitized by incubation for 2 hr at RT with tissue culture supernatant of the monoclonal antibody R3/13 HLK which is specific for the A^a class 1 transplantation antigen on DA erythrocytes. The red cells were then washed x3 in saline and resuspended at 1% v/v in PBS +1% BSA. The sensitized rat erythrocytes were added. At the same time fresh K237 serum was titrated as above as a positive non-dried control.
The capacity for the dried and fresh serum to cause indirect agglutination of the red cells sensitized by the rat antibody R3/13 was then read.

[4] = test system: R-phycoerythrin; experiment: Fluorescence of R-phycoerythrin after drying with or without trehalose; format: physicochemical, marine Rhodophyte; details: trehalose-containing samples, stored in the dark for 10 months
Method: The phycobiliprotein R-phycoerythrin was purified from a marine Rhodophyte. This brilliantly fluorescent red protein was blotted onto nitrocellulose membrane or glass fibre filter paper in phosphate buffer with and without 10% w/v added trehalose and dried at room temperature.
R-phycoerythrin at 5 mg/ml was dried at 37° on glass fibre filter paper (Whatman GF/C), cellulose filter paper (Whatman No. 1) or on nitrocellulose membrane (Schleicher & Schull 0.45μ pore size) in the presence of 5% trehalose in solution and in its absence. In the absence of trehalose the spots of dried R-phycoerythrin changed colour to a purplish red and lost >90% of their fluorescence intensity.

[5] = test system: cellular organelles; details: loss of bound water; cited from earlier work
[6] = test system: fixed red cells; experiment: Drying of antigen- or antibody-coupled fixed red blood cells; format: cell-based; details: dried in the presence of trehalose
From the text: Upon rehydration the coupled, fixed red cells can be resuspended to form a perfect single cell suspension which then behaves as a fresh red cell suspension does in haemagglutination assays.

[7] = test system: alkaline phosphate from calf intestine; experiment: Preservation of dried alkaline phosphatase activity; format: biochemical; details: dried at 37° with 5% trehalose, 4 weeks at room temperature
Method: The mammalian enzyme alkaline phosphate from calf intestine was serially diluted in phosphate buffered saline (PBS) and added to the wells of a NUNC Immunoplate. After overnight incubation to bind the enzyme to the plastic surface, the wells were washed, shaken free of liquid, and dried at 37° in the presence or absence of 5% trehalose in distilled water. […] At the end of this time the wells were rehydrated with distilled water and substrate added. A positive control consisted of fresh dilutions of the enzyme. The activity of one enzyme was measured by the standard test of […] p-nitrophenylphosphate and monitoring the optical density at 405 nm.

[8] = test system: rat lymphocytes; experiment: Fluorescence microscopy of labelled rat lymphocytes; format: cell-based; details: dried with 10% added trehalose
From the text: Fluorescence microscopy using R-phycoerythrin as the fluorochrome was previously very inefficient because of fluorescence fading in aqueous mountants. This can be prevented by drying of the preparation and mounting in a non-polar mountant such as Gurr's Fluoromount, but drying destroys more than 90% of the fluorescence of R-phycoerythrin. This is prevented by drying in the presence of trehalose in the final buffer.
The anti CD4 monoclonal antibody W3/25 was coupled with biotin-linker-arm N-hydroxysuccinimide ester and used in saturating doses to label the T helper subset of rat lymphocytes. These labelled cells were then detected with a second stage staining using a streptavidin-R-phycoerythrin conjugate. After a final wash the cells were divided into four aliquots and one was examined in the FACS to illustrate correct labelling with these reagents. […] Smears were made and dried and then mounted in Fluoromount. The fourth aliquot was mounted wet in PBS. All three preparations were examined in a Zeiss photomicroscope II with Ploem optics.

[9] = test system: A blood group substance; experiment: titrated haemagglutination assay of dried mouse IgM anti A antibody; format: cell-based, human; details: dried at 37° overnight
Method: as §1, §2

[10] = test system: guinea pig serum complement; experiment: CH50 assay, preservation of dried serum complement; format: cell-based
Method: Guinea pig serum was prepared fresh and frozen in aliquots at -196° until use. As target cells, washed sheep erythrocytes (SRBC) which had been stored in Alsever's solution for up to 2 weeks were incubated with the bovine monoclonal anti-Forrsman antibody 94A1-AZA for 1 hr at 4° and then washed in complement fixation diluent (CFD). Freshly thawed guinea pig serum was diluted in CFD where required in flat bottom microtitre plate (NUNC, Denmark) and trehalose added at various concentrations. […] For the CH50 assay (P.J. Lachmann and M.J. Hobart in "Handbook of Experimental Immunology" ed. D.M. Weir, Blackwell 1978), dried or fresh complement was titrated out in a U bottom microtitre plate and sensitised SRBC added to a final concentration of 2%. […] The endpoint was measured as the cup in which 50% of the erythrocytes remained as a button.

[11] = test system: rat IgG; experiment: indirect haemagglutination titre of K237 antiserum dried on matrices and eluted; format: cell-based; details: dried on Whatman No. 1 cellulose paper
Method: A number of different matrices were examined for use as a trehalose support. They include pure cellulose paper (Whatman No. 1 filter paper), glass fibre paper (What man GF/A and GF/C papers), polyurethane sponge foam and porous polyethylene sheet. These matrices were soaked in trehalose dissolved in distilled water at various concentrations from 10% down to 1% and dried at 37°. […] Various sera were applied to the paper and dried at 37°. After various periods of storage at 37+, samples were eluted with distilled water or normal saline; usually used in a volume 2-4 times that of the original serum sample so that their potency could be directly compared with fresh non-dried samples of the same sera.
K237, a sheep antiserum against rat IgG, was dried on to 10% trehalose-impregnated cellulose paper, glass fibre paper and porous polyethylene sheet and stored for 7 days at 37° C.
The paper or sheet was eluted with 4 volumes of normal saline and titrated in an indirect haemagllutination assay for its ability to agglutinate DA strain rat erythrocytes coated with a monoclonal antibody (JN2/85) against the class 1 antigens expressed on the erythrocyte membranes.
The same antiserum was then tested by drying on the Whatman No. 1 cellulose paper in the presence of various sugars and in the absence of sugar.

[12] = molar basis; cited from earlier work
[13] = test system: haemoglobin; experiment: Spectral properties and gas exchange of dried haemoglobin; format: physicochemical; details: oxy and carboxy forms dried in the presence of trehalose
From the text: Many macromolecular functions require mobility of the macromolecule e.g. antibodies have to physically move into close proximity to their antigen in order for binding to occur through electrostatic and hydrophobic interactions. The same is true of enzymes binding their substrates. Minor molecular motion is also required for other macromolecular functions. Thus haemoglobin undergoes rotation and movement of certain amino acids during the reversible binding of oxygen and carbon dioxide. None of this molecular mobility is observed in the dry state.
In contrast, the fluorescence of R-phycoerythrin involves "movement" only on the sub atomic level. Absorption of light energy at low wavelengths e.g. (488 nm) causes electrons in the chromophores to shift to higher energy orbits. Fluorescence at longer wavelengths is due to the emission of photons when these electrons jump back to lower energy orbits. […] This method is therefore of great interest in the application of biological (and synthetic) macromolecules in new electronic applications. Examples include proton and electron pumping (such as is mediated, on exposure to light, by bacteriorhodopsin and rhodopsin). […]

[14] = test system: horseradish peroxidase; experiment: Preservation of dried horseradish peroxidase activity; format: biochemical; details: dried with or without trehalose; compared with alkaline phosphatase

Compound: OC[C@H]1O[C@H](O[C@H]2[C@H](O)[C@@H](O)C(O)O[C@@H]2CO)[C@H](O)[C@@H](O)[C@@H]1O (mixture of isomers) [maltose, reference compound]
% activity retained in HA titre [1]: 11.1%

fluorescence after storage [4]: without loss of fluorescence
retention of enzyme activity [7]: Full retention of activity
fading of fluorescent cells [8]: did not fade
fading of labelled cells on repeated examination ([8]; several weeks): no detectable fading
Compound: OC[C@H]1O[C@H](O[C@H]2O[C@H](CO)[C@@H](O)[C@H](O)[C@H]2O)[C@H](O)[C@@H](O)[C@@H]1O [Trehalose, α-D-glucopyranosyl-α-D-glucopyranoside]
trehalose concentration preserving maximum activity [2]: above 0.5%
% activity retained in HA titre [1]: 100%
maximum preservation of activity ([1]; human antibody, 2.5% final trehalose, dried at 37° overnight): 100%
change in titre ([1]; human antibody, 5% final trehalose concentration): slight decrease in titre
final concentration of trehalose at maximum preservation ([1]; human antibody, at the drying stage): 2.5%
Titre (cups) ([3]; Dried + Trehalose (5% w/v, 37°, 48 hr)): 7
antibody activity of whole serum preserved ([3]; dried with trehalose): 100%
protection of cellular organelles compared with other carbohydrates [5]: significantly superior to other carbohydrates
function of antibody or antigen coupled to fixed red cell membrane [6]: completely preserves the function of the antibody or antigen
preservation and resuspension of fixed red cells [6]: completely preserves the fixed red cells themselves
brilliantly fluorescent cells [8]: 75%
trehalose concentration preserving maximal activity [9]: above 1%
complement activity preserved ([10]; 25% serum, trehalose 0.15M and above): 100%
complement activity preserved ([10]; 50% normal serum, trehalose 0.22M and above): 100%
prevention of loss of complement activity ([10]; dried with trehalose and reconstituted): completely prevented
inhibition by high concentrations of trehalose ([10]; up to 0.5M, any concentration of serum): not inhibitory

Compound: O=C[C@H](O)[C@@H](O)[C@H](O)[C@H](O)CO [glucose, reference compound]
% activity retained in HA titre [1]: 1.2%

Compound: OC[C@H]1O[C@H](OC[C@H]2O[C@H](O[C@]3(CO)O[C@H](CO)[C@@H](O)[C@@H]3O)[C@H](O)[C@@H](O)[C@@H]2O)[C@H](O)[C@@H](O)[C@H]1O [raffinose, reference compound]
% activity retained in HA titre [1]: 3.7%
difference from the untreated paper [11]: No significant difference

Compound: OC[C@H]1O[C@@](CO)(O[C@H]2O[C@H](CO)[C@@H](O)[C@H](O)[C@H]2O)[C@@H](O)[C@@H]1O [sucrose, reference compound]
% activity retained in HA titre [1]: 11.1%
difference from the untreated paper [11]: No significant difference

Compound: R Phycoerythrin
brightness relative to fluorescein [12]: 20 times

Compound: haemoglobin
spectral properties after drying [13]: retain their spectral properties

Compound: horseradish peroxidase
retention of enzyme activity [14]: Identical results

From US4891319A, “Protection of proteins and the like” (Quadrant Bioresources Limited, priority 1985, dated 1990)
